Columns and labels:
[1] = tested on: patient with chronic depression and post-traumatic stress disorder
surgical patients = conditions: over 80 patients; GABA-A agonist (e.g., propofol) and adjunctive medications
Source text: This invention describes the discoveries that control, monitor, and administer the hypnotic or sedative agent such as a GABA-A agonist (e.g., propofol) and adjunctive medications at designed dosages, timing, and modes of administration to produce dreams and an unique sleep state of un-fragmented Continuous REM Sleep.

rats = conditions: intravenous, over a 6 hour period; cited from earlier work
[2] = Patient A, same regimen, follow-up

CC(C)c1cccc(C(C)C)c1O [propofol, 2-6 diisopropylphenol]
patient-reported sleep recovery after the procedure ([1]; Patient A, same regimen, Continuous REM Sleep of approximately 1 hour): felt extremely rested
duration of improved ease of sleeping post-operatively [1, 2]: three
nightmares on follow-up [1, 2]: lack of nightmares
dreaming reported during the procedure ([1]; human, in vivo): profuse dreaming about gardening
achievement of Continuous REM Sleep (surgical patients): achieved Continuous REM Sleep
replication of natural sleep cycle (rats): replicate a natural sleep cycle

From patent US20090198145A1, “COMPOSITIONS, METHODS, AND SYSTEMS FOR RAPID INDUCTION AND MAINTENANCE OF […] SLEEP” (priority 2008, published 2009)
